{"source": "ChEMBL document CHEMBL1201862", "about": "“PubChem BioAssay data set” (2004)", "key": {"DNA topoisomerase": {"biological_target": "DNA topoisomerase (Yersinia pestis, UniProt A0A2S9PM60)", "sequence (A0A2S9PM60 whole entry)": "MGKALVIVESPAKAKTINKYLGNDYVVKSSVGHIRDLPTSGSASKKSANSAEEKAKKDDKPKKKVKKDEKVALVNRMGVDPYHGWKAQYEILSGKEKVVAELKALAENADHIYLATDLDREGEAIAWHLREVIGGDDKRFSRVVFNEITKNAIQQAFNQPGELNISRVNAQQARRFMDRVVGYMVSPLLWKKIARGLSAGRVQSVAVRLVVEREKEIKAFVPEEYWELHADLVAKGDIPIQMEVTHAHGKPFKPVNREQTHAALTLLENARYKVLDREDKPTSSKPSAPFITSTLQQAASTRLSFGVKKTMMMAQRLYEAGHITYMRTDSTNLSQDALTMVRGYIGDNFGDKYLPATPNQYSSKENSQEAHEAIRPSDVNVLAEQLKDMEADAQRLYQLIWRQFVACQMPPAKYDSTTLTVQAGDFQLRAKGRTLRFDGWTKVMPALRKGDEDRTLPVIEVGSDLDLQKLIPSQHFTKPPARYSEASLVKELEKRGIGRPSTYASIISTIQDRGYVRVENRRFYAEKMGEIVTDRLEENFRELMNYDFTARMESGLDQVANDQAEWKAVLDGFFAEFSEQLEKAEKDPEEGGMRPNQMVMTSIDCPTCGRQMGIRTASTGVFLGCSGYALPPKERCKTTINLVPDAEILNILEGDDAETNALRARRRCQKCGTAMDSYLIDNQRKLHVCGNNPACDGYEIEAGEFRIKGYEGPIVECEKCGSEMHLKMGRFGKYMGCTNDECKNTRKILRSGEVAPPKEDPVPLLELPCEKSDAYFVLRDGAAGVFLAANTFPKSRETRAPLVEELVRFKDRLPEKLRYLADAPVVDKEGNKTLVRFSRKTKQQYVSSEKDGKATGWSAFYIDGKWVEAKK", "assay": "Yersinia topoisomerase I cleavage product accumulation – biochemical, cherry-pick, dose response (AID 588525)"}, "INS1 [1]": {"system": "INS1", "assay": "INS-1E mitochondrial potential loss inhibitors – cell-based, JC-1 fluorescence, dry powder, set 2, dose response (AID 488867)", "format": "functional", "details": "Rattus norvegicus"}, "INS1 [2]": {"system": "INS1", "assay": "INS-1E mitochondrial potential rescue under cytokines – cell-based, JC-1 fluorescence ratio, dry powder, dose response (AID 488931)", "format": "functional", "details": "Rattus norvegicus"}, "Phospholipase D1": {"biological_target": "T1, Phospholipase D1 (Homo sapiens, UniProt Q13393)", "T1 sequence (Q13393 whole entry)": "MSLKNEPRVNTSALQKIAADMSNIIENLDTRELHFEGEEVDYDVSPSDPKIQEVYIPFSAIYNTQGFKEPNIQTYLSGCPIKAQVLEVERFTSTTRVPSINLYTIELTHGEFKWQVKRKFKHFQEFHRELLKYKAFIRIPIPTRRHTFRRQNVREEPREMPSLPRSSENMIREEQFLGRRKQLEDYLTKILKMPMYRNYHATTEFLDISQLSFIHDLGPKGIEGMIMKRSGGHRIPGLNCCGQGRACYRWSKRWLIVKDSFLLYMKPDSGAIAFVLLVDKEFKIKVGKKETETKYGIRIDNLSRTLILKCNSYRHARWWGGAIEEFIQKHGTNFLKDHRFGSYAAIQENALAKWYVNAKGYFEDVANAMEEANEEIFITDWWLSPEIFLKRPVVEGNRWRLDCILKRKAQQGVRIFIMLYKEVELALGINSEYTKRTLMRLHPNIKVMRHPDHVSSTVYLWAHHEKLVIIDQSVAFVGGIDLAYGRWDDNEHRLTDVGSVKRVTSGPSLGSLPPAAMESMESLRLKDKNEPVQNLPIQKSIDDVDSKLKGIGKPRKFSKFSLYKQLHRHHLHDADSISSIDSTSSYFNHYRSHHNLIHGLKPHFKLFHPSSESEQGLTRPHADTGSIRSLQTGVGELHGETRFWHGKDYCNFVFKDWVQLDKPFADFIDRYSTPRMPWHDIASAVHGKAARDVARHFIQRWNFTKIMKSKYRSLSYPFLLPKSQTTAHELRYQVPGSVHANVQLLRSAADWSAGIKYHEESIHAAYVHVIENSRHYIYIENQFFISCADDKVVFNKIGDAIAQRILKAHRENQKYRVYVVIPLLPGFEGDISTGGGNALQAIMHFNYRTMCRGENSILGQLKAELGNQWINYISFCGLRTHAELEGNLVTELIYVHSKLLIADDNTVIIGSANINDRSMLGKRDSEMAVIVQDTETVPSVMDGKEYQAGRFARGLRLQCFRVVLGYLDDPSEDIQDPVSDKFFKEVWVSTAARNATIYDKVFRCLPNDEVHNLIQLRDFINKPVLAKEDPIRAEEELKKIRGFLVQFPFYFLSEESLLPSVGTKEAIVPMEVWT", "assay": "cellular phospholipase D1 inhibition IC50 – cell-based, dose response (AID 602151);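 also: cellular PLD1 assay in Calu-1 cells stimulated with PMA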", "format": "functional"}, "Phospholipase D2": {"biological_target": "Phospholipase D2 (Homo sapiens, UniProt O14939)", "sequence (O14939 whole entry)": "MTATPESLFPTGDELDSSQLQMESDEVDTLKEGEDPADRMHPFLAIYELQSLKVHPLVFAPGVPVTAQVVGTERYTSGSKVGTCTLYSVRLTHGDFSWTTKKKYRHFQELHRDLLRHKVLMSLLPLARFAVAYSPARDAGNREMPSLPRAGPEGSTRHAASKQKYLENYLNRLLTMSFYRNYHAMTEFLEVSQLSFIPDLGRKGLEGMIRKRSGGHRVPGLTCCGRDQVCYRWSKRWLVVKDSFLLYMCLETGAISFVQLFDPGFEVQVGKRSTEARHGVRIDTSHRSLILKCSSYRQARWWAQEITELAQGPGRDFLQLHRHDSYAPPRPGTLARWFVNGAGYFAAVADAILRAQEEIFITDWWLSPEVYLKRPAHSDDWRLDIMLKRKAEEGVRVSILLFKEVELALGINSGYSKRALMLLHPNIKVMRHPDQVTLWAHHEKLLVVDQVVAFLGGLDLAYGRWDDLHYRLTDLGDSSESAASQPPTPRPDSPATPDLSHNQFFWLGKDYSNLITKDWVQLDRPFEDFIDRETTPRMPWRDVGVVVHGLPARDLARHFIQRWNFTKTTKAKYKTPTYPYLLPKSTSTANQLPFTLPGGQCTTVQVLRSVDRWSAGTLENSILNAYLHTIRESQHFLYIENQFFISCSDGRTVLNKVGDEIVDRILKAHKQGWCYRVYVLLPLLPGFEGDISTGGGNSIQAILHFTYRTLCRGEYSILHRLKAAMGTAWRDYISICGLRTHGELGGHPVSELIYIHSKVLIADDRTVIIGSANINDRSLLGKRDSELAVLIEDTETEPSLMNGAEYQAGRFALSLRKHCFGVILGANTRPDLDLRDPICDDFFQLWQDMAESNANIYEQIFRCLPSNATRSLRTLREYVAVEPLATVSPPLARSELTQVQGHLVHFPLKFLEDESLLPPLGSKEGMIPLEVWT", "assay": "cellular phospholipase D2 inhibition IC50 – cell-based, dose response (AID 602147);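 also: cellular assay in HEK293 cells overexpressing GFP-tagged PLD2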", "format": "functional"}}, "note": "Active and inactive are the calls of the source."}
{"compound": "O=C(Nc1ccccc1Cl)OCC#CCOC(=O)Nc1ccccc1Cl", "values": [{"measurement": "AC50", "setting": "DNA topoisomerase", "value": "12.6 µM (active)"}]}
{"compound": "COc1ccc(S(=O)(=O)N(C)C[C@@H]2Oc3c(NC(=O)Nc4cccc5ccccc45)cccc3C(=O)N([C@@H](C)CO)C[C@H]2C)cc1OC", "values": [{"measurement": "AC50", "setting": "INS1 [1]", "value": "116 µM (active)"}, {"measurement": "AC50", "setting": "INS1 [2]", "value": "85 µM (active)"}]}
{"compound": "O=C(NCCN1CCC2(CC1)C(=O)NCN2c1cccc(F)c1)c1ccc2c(c1)C(=O)OC2=O", "values": [{"measurement": "IC50", "setting": "Phospholipase D1", "value": "5.55 µM (active)"}, {"measurement": "IC50", "setting": "Phospholipase D2", "value": "0.265 µM (active)"}]}
